Laboratory results from patent publication US12714681B2, “Packaged, sealed container system for stable storage of an oxygen sensitive pharmaceutical formulation” (Baxter International Inc., priority 2020, dated 2026).

Experiments:
various receptors = conditions: R-isomer compared with S-isomer; cited from earlier work
[1] = cited from earlier work
[2] = Exploration of parameters: stability of norepinephrine formulations in 0.9% sodium chloride pre and post terminal sterilization; type: physicochemical
Protocol: Formulation parameters, such as antioxidant concentration and solution pH, were evaluated. Lab-scale batches were prepared and filled into containers through cut corners (resealed). Containers were subsequently vacuum sealed into overpouches. All formulations were prepared in 0.9% sodium chloride. Oxygen levels were controlled by preparing samples within a glove box under N2 atmosphere. Replicates were tested pre and post sterilization. Runs were evaluated by O2 content (head space and solution), pH, concentration of analyte and related compounds, enantiomeric purity, amount of antioxidant, and “visual inspection.”
Nineteen formulations were prepared in accordance with the table above.

Structure (SMILES)	affinity to various receptors / pharmaceutical activity (various receptors)	solubility in acidic solutions ([1]; acidic solutions)	solubility in alcohols and ethers ([1]; alcohols and ethers)	solubility in water ([1]; water)	rate of epimerization to the S-isomer ([2]; higher pH values)	rate of norepinephrine oxidation ([2]; lower pH values)
NC[C@H](O)c1ccc(O)c(O)c1 (single isomer, unassigned) [R-isomer]	higher affinity	–	–	–	–	–
NC[C@@H](O)c1ccc(O)c(O)c1 (single isomer, unassigned) [S-isomer]	negligible pharmaceutical activity	–	–	–	–	–
NC[C@H](O)c1ccc(O)c(O)c1 [norepinephrine]	–	readily soluble	slightly soluble	sparingly soluble	decreased the rate of epimerization to the S-isomer	decreased the rate of norepinephrine oxidation
